# Columns and labels:
# Settings in all cases: compound 10.0 µM
# [1] = target: CAMK4 (human) (UniProt Q16566)
# [2] = target: INSR (human) (UniProt P06213)
# [3] = target: CAMK1G (human) (UniProt Q96NX5)
# [4] = target: FER (human) (UniProt P16591)
# [5] = target: LCK (human) (UniProt P06239)
# [6] = target: PAK4 (human) (UniProt O96013)
# [7] = target: PRKD3 (human) (UniProt O94806)
# [8] = target: CAMK1 (human) (UniProt Q14012)
# [9] = target: CSNK1E (human) (UniProt P49674)
# [10] = target: STK33 (human) (UniProt Q9BYT3)
# [11] = target: STK24 (human) (UniProt Q9Y6E0)
# [12] = target: ABL1 (human) (UniProt P00519)
# [13] = target: AKT1 (human) (UniProt P31749)
# [14] = target: SRPK1 (human) (UniProt Q96SB4)
# [15] = target: MARK3 (human) (UniProt P27448)
# [16] = target: SIK2 (human) (UniProt Q9H0K1)
# [17] = target: PAK2 (human) (UniProt Q13177)
# [18] = target: EPHA1 (human) (UniProt P21709)
# [19] = target: PAK1 (human) (UniProt Q13153)
# [20] = target: EPHB2 (human) (UniProt P29323)
# [21] = target: ERBB2 (human) (UniProt P04626)
# [22] = target: TGFBR1 (human) (UniProt P36897)
# [23] = target: MAP4K2 (human) (UniProt Q12851)
# [24] = target: RPS6KB2 (human) (UniProt Q9UBS0)
# [25] = target: IKBKB (human) (UniProt O14920)
# [26] = target: CAMK2A (human) (UniProt Q9UQM7)
# [27] = target: NEK6 (human) (UniProt Q9HC98)
# [28] = target: CSNK1G3 (human) (UniProt Q9Y6M4)
# [29] = target: MAPK14 (human) (UniProt Q16539)
# [30] = target: GRK6 (human) (UniProt P43250)
# [31] = target: FGR (human) (UniProt P09769)
# [32] = target: ABL2 (human) (UniProt P42684)
# [33] = target: YES1 (human) (UniProt P07947)
# [34] = target: MAPK12 (human) (UniProt P53778)
# [35] = target: ACVR1 (human) (UniProt Q04771)
# [36] = target: EPHA5 (human) (UniProt P54756)
# [37] = target: CSNK1G1 (human) (UniProt Q9HCP0)
# [38] = target: MAP3K5 (human) (UniProt Q99683)
# [39] = target: ULK2 (human) (UniProt Q8IYT8)
# [40] = target: CLK3 (human) (UniProt P49761)
# [41] = target: WEE1 (human) (UniProt P30291)
# [42] = target: TAOK1 (human) (UniProt Q7L7X3)
# [43] = target: CSNK2A1 (human) (UniProt P68400)
# [44] = target: AURKA (human) (UniProt O14965)
# [45] = target: RAF1 (human) (UniProt P04049)
# CSNK2A1 (human), sequence (P68400 whole entry, looked up): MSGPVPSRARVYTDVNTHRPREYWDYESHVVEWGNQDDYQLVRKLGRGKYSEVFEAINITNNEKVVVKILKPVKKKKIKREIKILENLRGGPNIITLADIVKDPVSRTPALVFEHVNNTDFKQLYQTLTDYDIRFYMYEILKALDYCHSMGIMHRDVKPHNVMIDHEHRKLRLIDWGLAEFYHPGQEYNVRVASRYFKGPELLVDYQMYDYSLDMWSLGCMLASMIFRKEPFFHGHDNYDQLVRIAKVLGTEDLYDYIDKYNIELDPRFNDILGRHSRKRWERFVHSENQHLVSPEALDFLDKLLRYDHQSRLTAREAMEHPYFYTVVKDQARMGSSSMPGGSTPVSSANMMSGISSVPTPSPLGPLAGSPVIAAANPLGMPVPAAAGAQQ
# TGFBR1 (human), sequence (P36897 whole entry, looked up): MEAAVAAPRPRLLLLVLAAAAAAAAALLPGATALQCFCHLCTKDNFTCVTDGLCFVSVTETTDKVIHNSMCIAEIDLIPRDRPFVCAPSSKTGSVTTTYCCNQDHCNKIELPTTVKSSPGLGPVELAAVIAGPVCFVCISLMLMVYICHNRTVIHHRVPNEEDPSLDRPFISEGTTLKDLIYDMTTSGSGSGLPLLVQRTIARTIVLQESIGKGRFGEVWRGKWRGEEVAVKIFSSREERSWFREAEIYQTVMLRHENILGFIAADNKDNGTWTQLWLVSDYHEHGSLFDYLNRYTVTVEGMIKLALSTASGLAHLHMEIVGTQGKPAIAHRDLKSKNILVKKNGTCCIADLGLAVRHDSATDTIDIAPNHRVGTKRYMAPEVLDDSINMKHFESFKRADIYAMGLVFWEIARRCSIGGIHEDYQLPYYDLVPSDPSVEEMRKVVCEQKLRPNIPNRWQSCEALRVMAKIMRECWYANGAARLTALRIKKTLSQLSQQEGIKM
# PAK4 (human), sequence (O96013 whole entry, looked up): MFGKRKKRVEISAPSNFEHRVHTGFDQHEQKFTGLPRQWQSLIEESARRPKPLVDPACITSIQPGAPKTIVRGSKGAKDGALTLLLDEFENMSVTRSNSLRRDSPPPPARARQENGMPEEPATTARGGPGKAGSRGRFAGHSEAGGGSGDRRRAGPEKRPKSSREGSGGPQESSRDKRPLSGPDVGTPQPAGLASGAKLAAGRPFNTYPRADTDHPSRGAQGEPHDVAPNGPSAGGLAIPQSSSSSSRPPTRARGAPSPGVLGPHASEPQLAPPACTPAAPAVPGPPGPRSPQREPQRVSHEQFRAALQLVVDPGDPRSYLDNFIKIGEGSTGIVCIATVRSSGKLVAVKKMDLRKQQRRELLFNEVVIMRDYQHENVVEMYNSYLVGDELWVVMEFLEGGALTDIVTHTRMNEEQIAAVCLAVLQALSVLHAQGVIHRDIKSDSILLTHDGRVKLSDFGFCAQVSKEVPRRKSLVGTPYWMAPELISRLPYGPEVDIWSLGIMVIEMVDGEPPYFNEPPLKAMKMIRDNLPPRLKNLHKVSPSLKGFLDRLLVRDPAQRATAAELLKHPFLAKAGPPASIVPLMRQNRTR
# AKT1 (human), sequence (P31749 whole entry, looked up): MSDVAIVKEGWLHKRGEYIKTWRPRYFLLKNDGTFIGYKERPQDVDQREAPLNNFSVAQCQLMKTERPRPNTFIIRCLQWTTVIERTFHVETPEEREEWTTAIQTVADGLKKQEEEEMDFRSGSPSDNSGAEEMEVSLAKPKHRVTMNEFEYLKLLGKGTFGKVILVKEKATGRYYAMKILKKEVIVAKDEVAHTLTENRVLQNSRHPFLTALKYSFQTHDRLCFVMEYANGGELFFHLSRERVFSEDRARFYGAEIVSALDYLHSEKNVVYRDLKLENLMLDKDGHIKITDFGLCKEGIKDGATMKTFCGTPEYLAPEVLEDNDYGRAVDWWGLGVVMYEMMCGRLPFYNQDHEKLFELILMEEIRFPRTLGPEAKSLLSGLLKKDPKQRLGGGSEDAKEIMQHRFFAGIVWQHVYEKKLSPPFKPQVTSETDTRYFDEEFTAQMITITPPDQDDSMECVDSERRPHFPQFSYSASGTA
# STK24 (human), sequence (Q9Y6E0 whole entry, looked up): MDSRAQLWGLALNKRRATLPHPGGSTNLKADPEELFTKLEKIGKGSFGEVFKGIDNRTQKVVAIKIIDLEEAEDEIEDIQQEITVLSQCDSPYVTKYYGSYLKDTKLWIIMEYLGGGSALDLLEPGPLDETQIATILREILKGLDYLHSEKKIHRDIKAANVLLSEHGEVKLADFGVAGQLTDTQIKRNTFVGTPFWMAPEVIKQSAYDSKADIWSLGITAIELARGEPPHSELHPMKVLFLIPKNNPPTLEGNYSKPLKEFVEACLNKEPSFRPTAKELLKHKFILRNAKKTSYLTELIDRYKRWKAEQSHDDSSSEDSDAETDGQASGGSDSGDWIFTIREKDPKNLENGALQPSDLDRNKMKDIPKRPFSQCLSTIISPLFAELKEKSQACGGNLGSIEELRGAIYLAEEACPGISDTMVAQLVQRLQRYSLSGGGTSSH
# YES1 (human), sequence (P07947 whole entry, looked up): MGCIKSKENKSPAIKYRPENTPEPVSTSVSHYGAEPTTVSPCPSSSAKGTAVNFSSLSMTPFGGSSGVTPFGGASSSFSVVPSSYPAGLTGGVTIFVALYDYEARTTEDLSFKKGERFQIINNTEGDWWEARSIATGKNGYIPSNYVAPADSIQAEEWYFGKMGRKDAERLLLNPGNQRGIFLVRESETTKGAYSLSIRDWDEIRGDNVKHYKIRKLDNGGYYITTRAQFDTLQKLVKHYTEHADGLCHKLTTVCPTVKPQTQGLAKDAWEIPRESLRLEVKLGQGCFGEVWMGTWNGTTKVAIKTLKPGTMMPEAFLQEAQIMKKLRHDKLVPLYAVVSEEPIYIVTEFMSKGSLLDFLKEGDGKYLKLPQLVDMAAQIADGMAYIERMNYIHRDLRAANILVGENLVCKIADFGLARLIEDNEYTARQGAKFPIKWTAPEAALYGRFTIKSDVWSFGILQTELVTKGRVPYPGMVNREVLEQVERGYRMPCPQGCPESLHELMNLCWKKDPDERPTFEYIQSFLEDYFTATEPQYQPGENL
# ABL1 (human), sequence (P00519 whole entry, looked up): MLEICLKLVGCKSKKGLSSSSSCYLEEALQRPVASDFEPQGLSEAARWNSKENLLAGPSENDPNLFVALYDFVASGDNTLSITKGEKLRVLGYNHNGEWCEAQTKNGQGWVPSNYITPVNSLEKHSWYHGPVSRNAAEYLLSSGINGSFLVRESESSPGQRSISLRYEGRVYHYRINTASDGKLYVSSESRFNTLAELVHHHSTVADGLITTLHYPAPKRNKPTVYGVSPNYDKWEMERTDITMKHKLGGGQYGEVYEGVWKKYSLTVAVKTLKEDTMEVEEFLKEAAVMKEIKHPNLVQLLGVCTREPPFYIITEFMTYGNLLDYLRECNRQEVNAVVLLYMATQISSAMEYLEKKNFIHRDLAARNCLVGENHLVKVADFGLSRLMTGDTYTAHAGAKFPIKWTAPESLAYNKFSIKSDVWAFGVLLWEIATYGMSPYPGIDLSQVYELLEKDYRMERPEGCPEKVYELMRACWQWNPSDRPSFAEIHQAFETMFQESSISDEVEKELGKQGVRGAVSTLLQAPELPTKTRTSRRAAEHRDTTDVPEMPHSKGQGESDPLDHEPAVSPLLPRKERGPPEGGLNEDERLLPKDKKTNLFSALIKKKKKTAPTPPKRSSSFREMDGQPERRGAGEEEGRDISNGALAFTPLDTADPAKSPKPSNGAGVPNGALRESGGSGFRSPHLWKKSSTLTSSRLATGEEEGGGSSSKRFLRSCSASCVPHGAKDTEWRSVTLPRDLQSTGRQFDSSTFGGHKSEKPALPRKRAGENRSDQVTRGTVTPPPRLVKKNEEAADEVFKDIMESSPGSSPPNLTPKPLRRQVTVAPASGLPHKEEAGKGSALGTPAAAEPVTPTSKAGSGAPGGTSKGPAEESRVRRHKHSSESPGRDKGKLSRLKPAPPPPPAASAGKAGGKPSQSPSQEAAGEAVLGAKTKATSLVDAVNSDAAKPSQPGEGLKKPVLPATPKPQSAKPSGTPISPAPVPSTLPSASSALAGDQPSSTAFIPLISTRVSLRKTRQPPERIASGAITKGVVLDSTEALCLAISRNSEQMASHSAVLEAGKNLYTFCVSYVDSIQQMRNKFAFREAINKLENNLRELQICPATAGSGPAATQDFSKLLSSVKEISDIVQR
# PRKD3 (human), sequence (O94806 whole entry, looked up): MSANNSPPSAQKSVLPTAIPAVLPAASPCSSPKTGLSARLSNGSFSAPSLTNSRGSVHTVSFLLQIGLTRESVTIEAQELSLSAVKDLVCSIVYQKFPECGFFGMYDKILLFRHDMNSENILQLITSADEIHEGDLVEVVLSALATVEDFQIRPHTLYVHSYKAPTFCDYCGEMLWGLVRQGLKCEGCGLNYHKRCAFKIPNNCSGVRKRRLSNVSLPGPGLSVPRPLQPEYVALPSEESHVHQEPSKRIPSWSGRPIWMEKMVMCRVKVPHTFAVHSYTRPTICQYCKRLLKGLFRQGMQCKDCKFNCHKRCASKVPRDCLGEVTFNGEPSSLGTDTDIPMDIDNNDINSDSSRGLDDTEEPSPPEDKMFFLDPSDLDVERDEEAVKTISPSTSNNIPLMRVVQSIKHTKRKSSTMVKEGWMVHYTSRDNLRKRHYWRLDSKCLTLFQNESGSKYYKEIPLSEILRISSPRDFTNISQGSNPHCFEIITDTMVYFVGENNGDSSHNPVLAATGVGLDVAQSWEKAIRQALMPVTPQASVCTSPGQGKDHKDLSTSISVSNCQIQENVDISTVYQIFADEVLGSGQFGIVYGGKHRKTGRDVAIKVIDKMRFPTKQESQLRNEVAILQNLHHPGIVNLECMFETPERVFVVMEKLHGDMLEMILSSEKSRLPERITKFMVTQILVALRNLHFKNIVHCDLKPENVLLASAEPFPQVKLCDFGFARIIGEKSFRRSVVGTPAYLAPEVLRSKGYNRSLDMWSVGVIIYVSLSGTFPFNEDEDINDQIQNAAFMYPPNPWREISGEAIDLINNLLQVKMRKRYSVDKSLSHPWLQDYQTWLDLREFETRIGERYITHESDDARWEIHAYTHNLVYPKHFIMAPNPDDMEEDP
smiles,measurement,setting,value
CC[C@H](C)n1cc(C)c2c(C(=O)NCc3c(C)cc(C)[nH]c3=O)cc(-c3ccc(N4CCNCC4)nc3)cc21,residual activity,[1],87.5%
same,residual activity,[2],95.5%
same,residual activity,[3],84%
same,residual activity,[4],85.5%
same,residual activity,[5],99%
same,residual activity,[6],97.5%
same,residual activity,[7],102%
same,residual activity,[8],54%
same,residual activity,[9],94.5%
same,residual activity,[10],94.5%
same,residual activity,[11],82%
same,residual activity,[12],84%
same,residual activity,[13],91%
same,residual activity,[14],108%
same,residual activity,[15],110%
same,residual activity,[16],108%
same,residual activity,[17],97.5%
same,residual activity,[18],104%
same,residual activity,[19],106%
same,residual activity,[20],95.5%
same,residual activity,[21],100%
same,residual activity,[22],100%
same,residual activity,[23],91.5%
same,residual activity,[24],92%
same,residual activity,[25],102%
same,residual activity,[26],104%
same,residual activity,[27],95.5%
same,residual activity,[28],98%
same,residual activity,[29],100%
same,residual activity,[30],104%
same,residual activity,[31],91%
same,residual activity,[32],88%
same,residual activity,[33],78.5%
same,residual activity,[34],97.5%
same,residual activity,[35],92.5%
same,residual activity,[36],77%
same,residual activity,[37],110%
same,residual activity,[38],102%
same,residual activity,[39],99.5%
same,residual activity,[40],86%
same,residual activity,[41],100%
same,residual activity,[42],91.5%
same,residual activity,[43],110%
same,residual activity,[44],88%
same,residual activity,[45],97%

# Source: the kinase profiling compilation of Christmann-Franck et al. (2016)
